In ChEMBL document CHEMBL1155460, “Prediction of acetylcholinesterase inhibitors and characterization of correlative molecular descriptors by machine learning methods” (Eur J Med Chem, 2010):

Target: Acetylcholinesterase (Homo sapiens, UniProt P22303)
Sequence (P22303 whole entry): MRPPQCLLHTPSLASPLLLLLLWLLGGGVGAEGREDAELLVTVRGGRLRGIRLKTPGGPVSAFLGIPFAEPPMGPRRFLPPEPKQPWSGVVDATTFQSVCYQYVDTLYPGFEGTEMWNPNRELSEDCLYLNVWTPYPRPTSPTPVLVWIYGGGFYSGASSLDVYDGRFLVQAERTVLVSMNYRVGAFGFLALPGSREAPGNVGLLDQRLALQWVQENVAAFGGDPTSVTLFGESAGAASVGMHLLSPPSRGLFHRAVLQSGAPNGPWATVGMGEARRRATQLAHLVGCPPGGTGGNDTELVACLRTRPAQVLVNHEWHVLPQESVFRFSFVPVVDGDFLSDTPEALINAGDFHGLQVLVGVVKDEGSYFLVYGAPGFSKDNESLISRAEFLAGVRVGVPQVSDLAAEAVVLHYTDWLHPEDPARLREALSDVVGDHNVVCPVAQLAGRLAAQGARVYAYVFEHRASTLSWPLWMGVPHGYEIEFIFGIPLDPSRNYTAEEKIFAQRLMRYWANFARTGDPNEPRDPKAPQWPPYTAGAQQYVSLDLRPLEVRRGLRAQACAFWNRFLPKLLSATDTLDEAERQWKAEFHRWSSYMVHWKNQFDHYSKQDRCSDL

SMILES	IC50 [µM]
CCCCNC(=O)Oc1cccc(CN(C)CCCOc2ccc3c(=O)ccoc3c2)c1	0.25
Cc1nc(N)ncc1-c1nnnn1-c1ccc(-c2ccccc2)cc1	27
CNC(=O)Oc1ccc(-c2cn3c(NC(C)=O)cccc3[n+]2C)cc1	1.1
c1ccc(-c2ccc(NCCCCCN3Cc4ccccc4CN3)nn2)cc1	10
CN(C)C(=O)Nc1cccc2n1cc(-c1ccc(OC(=O)N(C)C)cc1)[n+]2C	1.6
COc1ccccc1CN1CCC(CCC(=O)c2ccc3c(c2)CCN3)CC1	0.812
Cc1cccc(CN2CCC(CCC(=O)c3ccc4c(c3)NCCCC4)CC2)c1	0.224
COc1ccc(C(=O)N(CCC2CCN(Cc3ccccc3)CC2)c2ccccc2)cc1	0.59
Nc1c2c(nc3ccccc13)-c1ccccc1CC2	37
O=C(CCOCCc1c[nH]c2ccccc12)NCCCCCNc1c2c(nc3cc(Cl)ccc13)CCCC2	0.0015
Cc1cc(=NCCC2CCN(Cc3ccccc3)CC2)[nH]nc1-c1ccccc1	0.021
O=C(NCCCCCCCNc1c2c(nc3cc(Cl)ccc13)CCCC2)c1n[nH]c2ccccc12	0.095
c1ccc(-c2nnc(NCN3CCCCC3)s2)cc1	54
COc1ccc(NC(=S)NCCOCCN(C)Cc2cccc([N+](=O)[O-])c2)cc1OC	1.5
CN(CCOCCNC(=S)Nc1ccccn1)Cc1ccccc1	4
c1ccc(-c2ccc(NCCN3CCOCC3)nn2)cc1	1000
Nc1cc(-c2ccccc2)nnc1NCCN1CCOCC1	270
CCCCCCNC(=O)Oc1ccc2c(c1)[C@]1(C)CCN(C)[C@@H]1C2	0.01
CN(C)C(=O)Oc1ccc(-c2cn3c(C(F)(F)F)cccc3[n+]2C)cc1	10
O=C(Nc1cccc2c1C(=O)N(CCC1CCN(Cc3ccccc3)CC1)C2=O)c1ccccc1	0.34
O=C(CCC1CCN(Cc2ccccc2Cl)CC1)c1ccc2c(c1)CCN2	0.076
O=C(CCC1CCN(Cc2ccc(F)cc2)CC1)c1ccc2c(c1)CCN2	0.089
c1ccc(-c2cnc(NCN3CCCCC3)nn2)cc1	60
O=C1c2cccnc2C(=O)N1CCC1CCN(Cc2ccccc2)CC1	0.013
c1ccc(-c2ccc(NCN3CCCCC3)nc2)cc1	13

SMILES	IC50 [µM]
COC(=O)Nc1cccc2n1cc(-c1ccc(OC(=O)N(C)C)cc1)[n+]2C	1.1
COc1ccc(CN2CCC(CCN3C(=O)c4ccc([N+](=O)[O-])cc4C3=O)CC2)cc1	0.44
N#Cc1ccc2[nH]cc(CCC(=O)NCCCCCCNc3c4c(nc5cc(Cl)ccc35)CCCC4)c2c1	0.0007
CC(=O)Nc1cccc2n1cc(-c1cccc(OC(=O)N(C)C)c1)[n+]2C	2.5
Nc1c2ccccc2nc2c1cnc1cc(Cl)ccc12	1000
CCCCCCNC(=O)Oc1ccc2c(c1)[C@]1(C)CCN(CCC)[C@@H]1C2	0.062
c1ccc(-c2ccc(NCCCN3CCOCC3)nn2)cc1	410
CCN1CC[C@@]2(C)c3cc(OC(=O)NC(C)c4ccccc4)ccc3C[C@@H]12 (stereo partly drawn)	1.33
Nc1cccc2c1C(=O)N(CCC1CCN(Cc3ccccc3)CC1)C2=O	0.011
O=C(CCOCCc1c[nH]c2ccccc12)NCCCCCCCNc1c2c(nc3cc(Cl)ccc13)CCCC2	0.003
c1ccc(-c2cnc(NCN3CCCCC3)nc2)cc1	100
COc1ccccc1CN1CCC(CCC(=O)c2ccc3c(c2)NCCCC3)CC1	2.65
COc1cc2c(cc1OC)CC(CC1CCN(c3ccccc3)CC1)=C2	4.4
Nc1c2c(nc3ccccc13)CCC2	0.056
COc1ccc(N(CCC2CCN(Cc3ccccc3)CC2)C(C)=O)cc1	0.7
Clc1ccc2c(NCCCCCCCNc3c4c(nc5cc(Cl)ccc35)CCCC4)c3c(nc2c1)CCCC3	7e-05
Nc1c2c(nc3ccccc13)-c1ccccc1NCCC2	391
O=C(CCOCCc1c[nH]c2ccccc12)NCCCCCCNc1c2c(nc3cc(Cl)ccc13)CCCC2	0.0007
COc1cccc(N(CCC2CCN(Cc3ccccc3)CC2)C(C)=O)c1	0.046
CCCCCCNC(=O)Oc1cccc(CN(C)CCCOc2ccc3ccc(=O)oc3c2)c1	0.013
CNC(=O)Oc1cccc(-c2cn3ccccc3[n+]2C)c1	0.35
c1ccc(-c2ncc(NCN3CCCCC3)nn2)cc1	57
CCCCCCNC(=O)Oc1cccc(CN(CCCOc2ccc3c(=O)c4ccccc4oc3c2)C(C)C)c1	0.17
O=C(Nc1cccc(C2=NCCN2)c1)Nc1cccc(C2=NCCN2)c1 [IMIDOCARB]	0.59
CNC(=O)Nc1cccc2n1cc(-c1ccc(OC(=O)N(C)C)cc1)[n+]2C	1.35

SMILES	IC50 [µM]
c1ccc(CN2CCC(Nc3ccc(-c4ccccc4)nn3)CC2)cc1	65
CN1CCCCc2ccc(C(=O)CCC3CCN(Cc4ccccc4)CC3)cc21	0.081
CCCCN1CCc2cc(C(=O)CCC3CCN(Cc4ccccc4)CC3)ccc21	0.029
CCCc1cc(=NCCC2CCN(Cc3ccccc3)CC2)[nH]nc1-c1ccccc1	0.061
c1ccc(-c2ccc(NCCN3CCCCC3)nn2)cc1	13
O=C(c1ccccc1)N(CCC1CCN(Cc2ccccc2)CC1)c1ccccc1	0.035
CN1CCCc2ccc(C(=O)CCC3CCN(Cc4ccccc4)CC3)cc21	0.036
Nc1c2c(nc3ccccc13)CCCCC2	0.039
Cc1c(/N=C/c2ccccc2O)cc2c(c1N)C(C)(C)CC2(C)C	16
O=C1c2ccc([N+](=O)[O-])cc2C(=O)N1CCC1CCN(Cc2ccccc2)CC1	0.0125
Cc1cc(-c2ccc(Cl)cc2)nnc1NCCN1CCCCC1	1.3
CN(CCOCCNC(=O)Nc1ccc([N+](=O)[O-])cc1)Cc1ccccc1	2.3
COc1ccc2c(c1OC)C(=O)CC2CCC1CCN(Cc2ccccc2)CC1 (stereo not drawn)	0.008
CN(C)CCCCCCCCCNc1c2c(nc3ccccc13)CCCC2	0.071
Cc1cc(-c2ccccc2)nnc1NCCN1CCOCC1 [MINAPRINE]	85
CCC(=O)N(CCC1CCN(Cc2ccccc2)CC1)c1ccccc1	0.83
O=C(CCC1CCN(Cc2ccc(F)cc2)CC1)c1ccc2c(c1)NCCCC2	0.393
CC(C)c1cc(-c2ccccc2)nnc1NCCC1CCN(Cc2ccccc2)CC1	0.43
c1ccc(-c2ccc(NCCCN3CCc4ccccc4C3)nn2)cc1	35
COc1cccc(CN2CCC(CCC(=O)c3ccc4c(c3)NCCCC4)CC2)c1	0.847
Nc1ccc2c(c1)c(-c1ccccc1)[n+](CCCNCCCNCCCNc1c3c(nc4ccccc14)CCCC3)c1cc(N)ccc21	0.00149
CN(CCOCCNC(=S)Nc1ccc(OC(F)(F)F)cc1)Cc1ccccc1	1
CN(CCOCCNC(=S)NC(=O)c1ccccc1)C1CCCCC1	0.013
CCCCCCCNC(=O)Oc1ccc2c(c1)[C@]1(C)CCN(C)[C@@H]1C2	0.114
CN(CCOCCNC(=S)NC(=O)c1ccccc1)Cc1ccccc1	0.12

SMILES	IC50 [µM]
O=C(CCC1CCN(Cc2cccc(Cl)c2)CC1)c1ccc2c(c1)CCN2	0.059
O=C(CCC1CCN(Cc2ccccc2)CC1)c1ccc2c(c1)NCC2	0.113
CNC(=O)Oc1cccc(CN(C)CCCCCCCOc2ccc3c(c2)OC/C(=C/c2cc(O)c(O)c(O)c2)C3=O)c1	0.00981
COc1ccc2c(c1)CCc1c-2nc2ccccc2c1N	47
CN(C)CCCCCCCCNc1c2c(nc3ccccc13)CCCC2	0.047
CN(C)c1ccc(-c2c3cc(O)c(=O)cc-3oc3cc(O)c(O)cc23)cc1	22
COc1ccccc1CN(C)CCCN(C)CCCNCCC[n+]1c(-c2ccccc2)c2cc(N)ccc2c2ccc(N)cc21	0.894
CCCCNC(=O)Oc1ccc2c(c1)[C@]1(C)CCN(CC)[C@@H]1C2	0.09
c1ccc2c(NCCCCCCCCNc3ccncc3)c3c(nc2c1)CCCC3	0.0136
Cc1cn2cc(C(N)=O)ccc2[n+]1C	27
O=c1[nH]c2cc(Cl)ccc2c(=O)n1CCC1CCN(Cc2ccccc2)CC1	0.0045
COc1cc2c(cc1OC)C(=O)C(CC1CCN(c3ccccc3)CC1)C2 (stereo not drawn)	0.0057
CN(CCCNC(=O)CCc1c[nH]c2ccccc12)CCCNc1c2c(nc3cc(Cl)ccc13)CCCC2	0.0029
CC(=O)N(CCC1CCN(Cc2ccccc2)CC1)c1ccccc1	0.052
COc1cccc(CN2CCC(CCC(=O)c3ccc4c(c3)CCN4)CC2)c1	2.68
O=C(CCC1CCN(Cc2ccccc2)CC1)c1ccc2c(c1)CCCN2c1ccccc1	0.054
O=C(CCC1CCN(Cc2cccc(F)c2)CC1)c1ccc2c(c1)NCCCC2	0.145
O=C(CCC1CCN(Cc2ccccc2)CC1)c1ccc2c(c1)CCN2	0.02
c1ccc(CN2CCC(CNc3ccc(-c4ccccc4)nn3)CC2)cc1	56
c1ccc2c(NCCCCCCCNc3ccncc3)c3c(nc2c1)CCCC3	0.0128
CN1CCc2cc(C(=O)CCC3CCN(Cc4ccccc4)CC3)ccc21	0.01
O=C(CCC1CCN(Cc2ccccc2)CC1)c1ccc2c(c1)N(Cc1ccccc1)CC2	0.853
